Measured values from patent publication EP4578855A1, “PROLYL HYDROXYLASE INHIBITOR AND USE THEREOF” (Suzhong Pharmaceutical Group Co., Ltd., priority 2022, dated 2024).
“And” between values parts separate entries of the source, which are not always exact repeats. Equal entries are not always repeated.

Key:
[1] = test system: human hepatocarcinoma cell line Hep3B; test: In-vitro erythropoietin (EPO)-inducing activity experiment (EPO ELISA, OD450); format: cell-based; conditions: Hep3B cells, incubated 24 hours at 37°C
Procedure: In-vitro erythropoietin (EPO)-inducing activities of the compounds in Embodiments 10 to 12 were evaluated by using a human hepatocarcinoma cell line Hep3B (ATCC). Hep3B cells were cultured in an EMEM medium (Eagle's Minimum Essential Medium) at 37°C in the presence of 10% fetal bovine serum (FBS). Experimental steps were as follows: • (1) Cell preparation: the cells were inoculated in a 96-well plate, and cell plating was carried out according to an amount of 100 µL per well based on 2*10~4 per well. • (2) Preparation of compound concentration gradient: 100 µM, 20 µM, 2-parallel well detection. A solution with 200 times final concentration was prepared in a 96-well plate, the compound was diluted 200/3 times by using a cell culture medium, and then 50 µL of the compound was sucked for drug administration to the cells. 50 µL of DMSO-containing culture solution was added into a negative control well to make a final concentration contain 5 ‰ DMSO, and 50 µL of positive compound with the highest concentration was added into a positive control well to incubate the cells at 37°C for 24 hours. • (3) The reaction plate was washed twice with 1X Wash Buffer according to about 400 µL per well. • (4) 100 µL of diluted standard (comprising a standard blank control) was added into an appropriate well. • (5) 50 µL of sample and 50 µL of Sample Diluent were added into a sample well. • (6) 50 µL of 1X Biotin Conjugated Antibody were added into all wells to incubate the cells at room temperature for 1 hour. • (7) The reaction plate was washed with 1X Wash Buffer for 6 times according to about 400 µL per well. • (8) 100 µL of 1X Streptavidin-HRP was added in to each well to incubate the cells at room temperature for 15 minutes. • (9) The reaction plate was washed with 1X Wash Buffer for 6 times according to about 400 µL per well. • (10) 100 µL of TMB Substrate Solution was added into each well to incubate the cells at room temperature for 10 minutes. • (11) 100 µL of Stop Solution was added into each well. • (12) OD450 was read by EnSight.
The EPO-inducing activities of the compounds were expressed as the concentration for 50% of maximal effect (EC50).

EPO (erythropoietin) [2] = test: Pharmacological evaluation: influence of continuous administration on EPO level; format: in vivo, SD rats; conditions: for EPO levels in serum of the rats: after 14 days of administration; for EPO levels in plasma of the rats: after administration, compared with the group of positive drug Enarodustat; for EPO level after 14 days of administration: individual rats 1-6; for EPO level after 14 days of administration / EPO level after 14 days of administration, Mean: 0.3 mg/mL, 10 mL/kg, once a day for 14 consecutive days, blood 4 hours after the drug on the 14th day, 2904.6 pg/mL was an upper limit of measurement; for EPO level after 14 days of administration, Mean: mean of 6 rats
Procedure: This experiment was intended to evaluate an influence of continuous administration of the compounds prepared in Embodiments 12, 13 and 14 on EPO (erythropoietin) in SD rats.
• Line: SD (Sprague Dawley) • Weeks of age and weight: 8 weeks, weight 200 g to 220 g • Sex: male • Animal source: Beijing Vital River Laboratory Animal Technology Co., Ltd.
• Positive drug: Enarodustat • Description: commercialized drugs approved for marketing in Japan • Specification and content: 2 mg JTZ-951(Enarodustat), 140 capsules/box
After a week of adaptive feeding, SD rats were randomly divided into 3 groups, 6 rats in each group, which were namely a blank group, a positive drug group (Enarodustat) and a group of compound in Embodiment 12. An Enarodustat tablet was crushed by a mortar, then quantitatively added with 0.5% methyl cellulose, and magnetically stirred and mixed evenly; and the compound prepared in Embodiment 12 was weighed, then quantitatively added with 0.5% methyl cellulose, and magnetically stirred and mixed evenly. […] The drug was given once a day for 14 consecutive days, and blood was taken to measure an EPO level 4 hours after the drug was given on the 14th day.

EPO (erythropoietin) [3] = test: as above; format: in vivo, SD rats; conditions: SD rat, continuous chronic administration, in words
PHD2 enzyme = target: T1, PHD2 enzyme (Homo sapiens, UniProt Q9GZT9); test: Detection of PHD2 enzyme activity inhibition (FITC-HIF1α tracer, mP read-out); format: biochemical; conditions: test concentration from 10 µM, diluted 3 times into 10 concentrations; read-out: IC50
T1 construct: purchased Active motif
T1 sequence (Q9GZT9 whole entry, species assumed): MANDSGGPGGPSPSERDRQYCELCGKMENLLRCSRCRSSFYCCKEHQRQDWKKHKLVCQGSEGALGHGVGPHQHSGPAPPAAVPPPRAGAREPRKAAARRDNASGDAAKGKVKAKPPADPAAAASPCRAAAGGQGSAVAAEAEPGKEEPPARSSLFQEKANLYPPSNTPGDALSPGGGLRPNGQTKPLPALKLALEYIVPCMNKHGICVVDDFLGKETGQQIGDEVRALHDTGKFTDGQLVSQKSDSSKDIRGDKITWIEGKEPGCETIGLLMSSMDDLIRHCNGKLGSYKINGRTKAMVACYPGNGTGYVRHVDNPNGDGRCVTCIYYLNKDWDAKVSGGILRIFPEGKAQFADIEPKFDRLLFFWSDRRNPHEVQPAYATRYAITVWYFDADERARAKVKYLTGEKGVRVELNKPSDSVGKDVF
Procedure: (1) A 1×Assay buffer was prepared. […] 100 nL of 100% DMSO was added into a negative control well and a positive control well respectively. (3) An enzyme solution with 2 times final concentration was prepared with the 1×Assay buffer. (4) 5 µL of the enzyme solution with 2 times final concentration was added into a compound well and the positive control well respectively. (5) 5 µL of the 1 ×Assay buffer was added into the negative control well. (6) The 384-well plate was centrifuged at 1000 rpm for 30 seconds, oscillated and mixed evenly, and then incubated for 15 minutes. (7) A tracer solution with 2 times final concentration was prepared with the 1×Assay buffer, and 5.0 µL of the tracer solution with 2 times final concentration was added to start the reaction.

[4] = Pharmacokinetic evaluation after intravenous injection or intragastric administration, plasma LC-MS/MS; format: in vivo, SD rats
Excerpt: After the compounds were given to SD rats by intravenous injection or intragastric administration, concentrations of related compounds in plasma were detected by an LC-MS/MS method, and pharmacokinetics and absolute bioavailability of the compounds prepared in Embodiments 13 and 14 in the rats were preliminarily evaluated.
2. Line: Sprague Dawley rats, sex: male, weight: 200 g to 250 g
Pharmacokinetic characteristics of rodents after intravenous injection and oral administration of the compounds were tested by a standard scheme. In the experiment, a candidate compound was prepared into a clear solution, and given to the rats by single intravenous injection and intragastric administration. A solvent for intravenous injection was a certain proportion of N,N-dimethylacetamide (DMA) and 10% Solutol HS15 solution, and a solvent for oral administration was a certain proportion of sodium carboxymethyl cellulose (CMC) suspension. 5 minutes, 15 minutes, 30 minutes, 1 hour, 2 hours, 4 hours, 6 hours, 8 hours, 10 hours and 24 hours after drug administration, blood samples of the animals were respectively collected into K2EDTA anticoagulation tubes, which were temporarily stored on ice until centrifugation.

[5] = Subacute toxicity test, 14 consecutive days; format: in vivo; conditions: SD rats, 10 mg/kg once a day for 14 consecutive days, in words
Excerpt: A proper amount of the compound in Embodiment 13 and a proper amount of the compound in Embodiment 14 were weighed by a balance and respectively placed into proper glass bottles, then DMSO, Solutol HS-15 and 0.9% physiological saline (in a ratio of v: v: v = 5%: 10%: 85%) were sequentially added into the glass bottles, and vortexed and stirred, and a drug dissolution condition was continuously concerned in the stirring process until the compounds were completely dissolved/suspended. Finally, drug solutions of the compound in Embodiment 13 and the compound in Embodiment 14 with a concentration of 0.67 mg/mL were prepared for current use.
An animal room was well ventilated, equipped with an air-conditioner, kept at a temperature of 20°C and 25°C and a humidity of 40% to 70%, and in light and dark conditions for 12 hours respectively, and the animals could eat and drink freely. SD rats with good physical signs could be selected for this experiment after being adaptively fed for at least 3 days before administration. Table 23 Source and number of experimental animals
Any operation on the experimental animals in this experiment met the requirements of the "Regulations for the Administration of Affairs Concerning Experimental Animals" issued by the Ministry of Science and Technology of the People's Republic of China. In this experiment, a solvent control group, an administration group of compound in Embodiment 13 and an administration group of compound in Embodiment 14 were set up. Administration dosages of the administration group of compound in Embodiment 13 and the administration group of compound in Embodiment 14 were (10 mg/kg) once a day for 14 consecutive days, while the same amount of blank solvent was given to the blank control group, and administration volumes were all 15 mL/kg. After each administration, symptoms and degrees of toxic reaction of the animals were observed. Recovery observation was carried out for 7 days after the last administration. […]
During the experiment, experimenters and veterinarians should observe physical signs and health conditions of the experimental animals continuously. Any abnormal manifestations of the animals, such as pain, depression and decreased activity should be recorded in original records of the experiment. […]
During the experiment, all animals were observed beside cages at least twice a day, and observed continuously for 2 hours after the drug administration. During the drug administration, if the animals had serious side effects or died, observation results should be recorded in a corresponding form. […]
The animals should be weighed before daily drug administration for 14 consecutive days, and the weights were recorded in a corresponding form. Food intakes of the experimental animals were detected during the experiment. […]

[6] = SD rats, in words, compared with Enarodustat in the table
[7] = male SD rats, route and dose not given

| Structure (SMILES) | EC50 ([1]; Homo sapiens, Hep3B, 24 h) [µM] | EPO level (EPO (erythropoietin) [2]; SD rat, continuous chronic administration, in words) | EPO levels in serum of the rats (EPO (erythropoietin) [2]; in words) | EPO levels in plasma of the rats (EPO (erythropoietin) [2]; in words) | EPO level after 14 days of administration (EPO (erythropoietin) [2]) | EPO level after 14 days of administration, Mean (EPO (erythropoietin) [2]) [pg/mL] | hemoglobin level (EPO (erythropoietin) [3]) | IC50 (PHD2 enzyme) [µM] | half-lives [4, 6] | in-vivo exposure [4, 6] | Bioavailability F ([4]; male SD rats, intragastric vs intravenous) [%] | Concentration integral AUC [4, 7] [ng·h/mL] | Half-life period T1/2 [4, 7] [h] | EC50 [1] [µM] | toxicities ([5]; compared with Enarodustat) | gastrointestinal findings [5] |
| --- | --- | --- | --- | --- | --- | --- | --- | --- | --- | --- | --- | --- | --- | --- | --- | --- |
| O=C(O)CNC(=O)c1c(O)cc(C2CCc3ccccc3C2)n2ncnc12 (centres unmarked) [Compound in Embodiment 12, [(7-hydroxy-5-(1,2,3,4-tetrahydronaphthalene-2-yl)-[1,2,4]triazolo[1,5-a]pyridine-8-carbonyl)amino]acetic acid] | 6.79 | significantly increase | increased significantly | significantly higher | 2649.3 pg/mL and ≥ 2904.6 pg/mL (4×) and 2882.6 pg/mL | 2858.4 | significantly increase | 0.0343 | – | – | – | – | – | – | – | – |
| O=C(O)CNC(=O)c1c(O)cc(C2CCc3ccccc3C2)n2ncnc12 (single isomer, unassigned) [Compound in Embodiment 14, [(7-hydroxy-5-(1,2,3,4-tetrahydronaphthalene-2-yl)-[1,2,4]triazolo[1,5-a]pyridine-8-carbonyl)amino]acetic acid] | – | – | increased significantly | significantly higher | 2279.1 pg/mL and 2095.6 pg/mL and 1982.7 pg/mL and 1943.6 pg/mL and 2038.9 pg/mL and 2137.6 pg/mL | 2079.6 | – | – | obviously longer | higher | 31.3 | 15740 | 2.43 | 4.16 | lower than that of Enarodustat | no obvious gastrointestinal necrosis, and bleeding spots or flatulence in a black stomach part |
